Measurements: patent US8846951B2 (AbbVie Inc., priority 2009, dated 2014)
Like-named read-outs stand apart in the source and are kept apart here.

Tests used:
[1] = target: T1, 5HT2C receptors (Homo sapiens, UniProt P28335); test: Human 5-HT2C functional high throughput screening assay in CHO-K1 cells (calcium flux); assay type: cell-based; parameters: expressed in transfected cells; host or cells: CHO-K1 cells; conditions: for EC50: CHO-K1 cells, calcium flux; for Emax: CHO-K1, 5-HT2C, maximum functional response as percentage relative to the effect of serotonin
T1 sequence (P28335 33-458): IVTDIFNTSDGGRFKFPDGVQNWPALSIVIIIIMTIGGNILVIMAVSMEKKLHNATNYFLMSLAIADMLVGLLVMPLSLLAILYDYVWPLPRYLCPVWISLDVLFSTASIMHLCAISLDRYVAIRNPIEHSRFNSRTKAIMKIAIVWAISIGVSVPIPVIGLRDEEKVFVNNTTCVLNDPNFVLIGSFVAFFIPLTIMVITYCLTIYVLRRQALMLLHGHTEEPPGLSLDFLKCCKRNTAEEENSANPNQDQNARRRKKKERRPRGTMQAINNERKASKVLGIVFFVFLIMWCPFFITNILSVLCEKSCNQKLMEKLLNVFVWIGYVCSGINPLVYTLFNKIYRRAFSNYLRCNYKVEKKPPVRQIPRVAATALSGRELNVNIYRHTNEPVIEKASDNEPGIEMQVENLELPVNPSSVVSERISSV
Description: (§1) (iii) Human 5-HT2C and 5-HT2B Functional High Throughput Screening Assays in CHO-K1 Cells
(§2) CHO-K1 cells over-expressing 5HT2C or 5HT2B receptors were grown in 1272 cm^2 flasks to 70-80% confluency in UltraCHO media (Lonza, Walkersville, Md.) supplemented with 1% dialyzed fetal bovine serum (FBS), 250 μg/mL zeocin, 100 U/mL penicillin and 100 μg/mL streptomycin, and 400 μg/mL geneticin. The cells were dissociated from the flasks using 0.05% trypsin, resuspended in Recovery™ cell culture freezing medium (Invitrogen, Carlsbad, Calif.) and stored in liquid nitrogen until use. The calcium flux experiments were done using frozen cells. The cells were diluted in media containing 1% dialyzed FBS and 100 U/mL penicillin and 100 μg/mL streptomycin and plated into 384-well poly-D-Lysine coated plates (15,000 cells/well). Then the plates were incubated overnight in a cell incubator at 37° C., 5% CO2. On the next day, the growth media was replaced with media without FBS and further incubated overnight. On day three, the changes in intracellular Ca^2+ were determined using calcium sensitive fluorescent dye, Ca4 (MDS Analytical Technologies, Sunnyvale, Calif.) by loading 15 μL of diluted dye in Hank's Balanced Salt Solution and 20 mM Hepes buffer (pH 7.4) with final concentration of 2.5 mM probenecid into the cells containing media. Then the cells were incubated at room temperature for 60 minutes in dark.
(§3) After incubation, the cell plates were transferred to FLIPR™ (MDS) and their fluorescence measurements were read at an excitation wavelength of 480 nm and an emission wavelength of 530 nm at 25° C. The baseline fluorescence was measured for the first 10 seconds and then 15 μL of 4× concentration of serotonin/test compound was added to the cells. The fluorescence intensity was captured every second for the first 1 minute followed by every 5 seconds for an additional 2 minutes. The increase in fluorescent response by a test compound was normalized to the response of serotonin and used to determine agonist activity. The concentration response of compounds was done from a starting concentration of 10 μM, 1:10 dilution across 6 wells with a final dimethyl sulfoxide concentration of 0.2% and was fitted using a 4-parameter logistic equation. The concentration at which a compound exerts half its maximal effect was named as ‘effective concentration 50’ or ‘EC50’. Emax is the maximum functional response or efficacy expressed as a percentage relative to the effect of serotonin.

[2] = target: T2, 5HT2B receptors (Homo sapiens, UniProt P41595); test: Human 5-HT2B functional high throughput screening assay in CHO-K1 cells (calcium flux); assay type: cell-based; conditions: for EC50: CHO-K1 cells, calcium flux
T2 construct: expressed in transfected cells; host or cells: CHO-K1 cells
T2 sequence (P41595 whole entry): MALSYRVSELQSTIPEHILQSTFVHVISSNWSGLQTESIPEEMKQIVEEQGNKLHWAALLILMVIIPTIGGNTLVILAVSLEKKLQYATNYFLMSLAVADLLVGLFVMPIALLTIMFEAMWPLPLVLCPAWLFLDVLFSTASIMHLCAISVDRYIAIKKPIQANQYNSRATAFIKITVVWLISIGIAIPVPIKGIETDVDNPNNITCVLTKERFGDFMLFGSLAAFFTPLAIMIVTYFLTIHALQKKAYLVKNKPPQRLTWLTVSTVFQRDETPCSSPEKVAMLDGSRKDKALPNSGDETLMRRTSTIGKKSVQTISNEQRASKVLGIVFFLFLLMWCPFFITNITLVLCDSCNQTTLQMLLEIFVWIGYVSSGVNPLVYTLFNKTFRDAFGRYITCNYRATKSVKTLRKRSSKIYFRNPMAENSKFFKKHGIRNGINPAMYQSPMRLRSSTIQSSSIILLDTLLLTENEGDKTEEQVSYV
Description: as §1, §2, §3

[3] = 5-HT2C agonist activity, read-out: EC50
[4] = 5-HT2B agonist activity, read-out: EC50
[5] = 5-HT2B, maximum functional response as percentage relative to the effect of serotonin

Structure (SMILES) | EC50 [1, 3] | Emax ([1]; read-out: Emax) | EC50 [2, 4] | Emax [2, 5] | Emax [1] | EC50 ([1]; EC50, 5-HT2C agonist activity) | EC50 ([2]; EC50, 5-HT2B agonist activity) | Emax ([2]; CHO-K1)
C[C@H](Cc1ccccc1)Oc1ccc2c(c1)C(=O)NC[C@@H]1CN(Cc3ccccc3)C[C@@H]21 (mixture of isomers) [Example 118, Trans-2-benzyl-8-((R)-1-phenylpropan-2-yloxy)-1,2,3,3a,4,5-hexahydrobenzo[e]pyrrolo[3,4-c]azepin-6(10bH)-one] | 0.3 µM | > 120% | > 10 µM | inactive |  |  |  | 
C[C@@H](Cc1ccccc1)Oc1ccc2c(c1)C(=O)NC[C@@H]1CN(Cc3ccccc3)C[C@@H]21 (mixture of isomers) [Example 120, Trans-2-benzyl-8-((S)-1-phenylpropan-2-yloxy)-1,2,3,3a,4,5-hexahydrobenzo[e]pyrrolo[3,4-c]azepin-6(10bH)-one] | 0.4 µM | 110% | > 10 µM | inactive |  |  |  | 
C[C@@H](Cc1ccccc1)Oc1ccc2c(c1)C(=O)NC[C@@H]1CNC[C@@H]21 (mixture of isomers) [Example 149, Trans-8-((S)-1-phenylpropan-2-yloxy)-1,2,3,3a,4,5-hexahydrobenzo[e]pyrrolo[3,4-c]azepin-6(10bH)-one] | 0.004 µM | 120% | > 10 µM | inactive |  |  |  | 
C[C@@H](Oc1ccc2c(c1)C(=O)NC[C@@H]1CNC[C@@H]21)c1ccccc1 (mixture of isomers) [Example 150, Trans-8-((R)-1-phenylethoxy)-1,2,3,3a,4,5-hexahydrobenzo[e]pyrrolo[3,4-c]azepin-6(10bH)-one] |  |  |  | inactive | > 120% | 0.05 µM | > 10 µM | 
C[C@H](Oc1ccc2c(c1)C(=O)NC[C@@H]1CNC[C@@H]21)c1ccccc1 (mixture of isomers) [Example 155, Trans-8-((S)-1-phenylethoxy)-1,2,3,3a,4,5-hexahydrobenzo[e]pyrrolo[3,4-c]azepin-6(10bH)-one] |  |  |  | inactive | > 120% | 0.05 µM | > 10 µM | 
c1cnc2c(c1)C1CNCC1CCO2 (mixture of isomers) [Example 260, 2,3,3a,4,5,10b-Hexahydro-1H-pyrrolo[3′,4′:4,5]oxepino[2,3-b]pyridine] | 1 µM |  | 3 µM |  | > 120% |  |  | 45%
CC(O)c1cc(-c2ccc3c(c2)C(=O)NC[C@H]2CN(C)C[C@H]32)ccc1F (mixture of isomers) [Example 307, (3aS,10bS)-8-[4-Fluoro-3-(1-hydroxyethyl)phenyl]-2-methyl-2,3,3a,4,5,10b-hexahydropyrrolo[3,4-d][2]benzazepin-6(1H)-one] | 0.0007 µM | 100% | > 10 µM | inactive |  |  |  | 
CN1C[C@H]2CNC(=O)c3cc(-c4ccc(F)cc4)ccc3[C@@H]2C1 (relative stereo) [Example 75, Trans-8-(4-fluorophenyl)-2-methyl-1,2,3,3a,4,5-hexahydrobenzo[e]pyrrolo[3,4-c]azepin-6(10bH)-one] |  | > 120% | > 10 µM | inactive |  |  |  | 
CN1C[C@H]2CNC(=O)c3cc(-c4cccc(F)c4)ccc3[C@@H]2C1 (relative stereo) [Example 76, Trans-8-(3-fluorophenyl)-2-methyl-1,2,3,3a,4,5-hexahydrobenzo[e]pyrrolo[3,4-c]azepin-6(10bH)-one] | 0.011 µM | > 120% | > 10 µM | inactive |  |  |  | 
CN1C[C@H]2CNC(=O)c3cc(-c4ccccc4F)ccc3[C@@H]2C1 (relative stereo) [Example 77, Trans-8-(2-fluorophenyl)-2-methyl-1,2,3,3a,4,5-hexahydrobenzo[e]pyrrolo[3,4-c]azepin-6(10bH)-one] | 0.0058 µM | > 120% | > 10 µM | inactive |  |  |  | 
CN1C[C@H]2CNC(=O)c3cc(-c4ccc(F)c(F)c4)ccc3[C@@H]2C1 (relative stereo) [Example 78, Trans-8-(3,4-difluorophenyl)-2-methyl-1,2,3,3a,4,5-hexahydrobenzo[e]pyrrolo[3,4-c]azepin-6(10bH)-one] | 0.0066 µM | > 120% | > 10 µM | inactive |  |  |  | 
CN1C[C@H]2CNC(=O)c3cc(-c4ccc(C(F)(F)F)cc4)ccc3[C@@H]2C1 (relative stereo) [Example 79, Trans-2-methyl-8-(4-(trifluoromethyl)phenyl)-1,2,3,3a,4,5-hexahydrobenzo[e]pyrrolo[3,4-c]azepin-6(10bH)-one] | 0.03 µM | > 120% | > 10 µM | inactive |  |  |  | 
CN1C[C@H]2CNC(=O)c3cc(-c4ccc5ccccc5c4)ccc3[C@@H]2C1 (relative stereo) [Example 80, Trans-2-methyl-8-(naphthalen-2-yl)-1,2,3,3a,4,5-hexahydrobenzo[e]pyrrolo[3,4-c]azepin-6(10bH)-one] | 0.022 µM | > 120% | > 10 µM | inactive |  |  |  | 
Cc1cccc(-c2ccc3c(c2)C(=O)NC[C@@H]2CN(C)C[C@@H]32)c1 (relative stereo) [Example 81, Trans-2-methyl-8-m-tolyl-1,2,3,3a,4,5-hexahydrobenzo[e]pyrrolo[3,4-c]azepin-6(10bH)-one] | 0.0017 µM | > 120% | > 10 µM | inactive |  |  |  | 
Cc1ccc(-c2ccc3c(c2)C(=O)NC[C@@H]2CN(C)C[C@@H]32)cc1 (relative stereo) [Example 82, Trans-2-methyl-8-p-tolyl-1,2,3,3a,4,5-hexahydrobenzo[e]pyrrolo[3,4-c]azepin-6(10bH)-one] | 0.0042 µM | > 120% | > 10 µM | inactive |  |  |  | 
CN1C[C@H]2CNC(=O)c3cc(-c4ccc(S(C)(=O)=O)cc4)ccc3[C@@H]2C1 (relative stereo) [Example 83, Trans-2-methyl-8-(4-(methylsulfonyl)phenyl)-1,2,3,3a,4,5-hexahydrobenzo[e]pyrrolo[3,4-c]azepin-6(10bH)-one] | 0.2 µM | > 120% | > 10 µM | inactive |  |  |  | 
CN1C[C@H]2CNC(=O)c3cc(-c4cccc(S(C)(=O)=O)c4)ccc3[C@@H]2C1 (relative stereo) [Example 84, Trans-2-methyl-8-(3-(methylsulfonyl)phenyl)-1,2,3,3a,4,5-hexahydrobenzo[e]pyrrolo[3,4-c]azepin-6(10bH)-one] |  | > 120% | > 10 µM | inactive |  |  |  | 
CN1C[C@H]2CNC(=O)c3cc(C=Cc4ccccc4)ccc3[C@@H]2C1 (relative stereo) [Example 85, Trans-2-methyl-8-styryl-1,2,3,3a,4,5-hexahydrobenzo[e]pyrrolo[3,4-c]azepin-6(10bH)-one] | 0.121 µM | 100% | > 10 µM | inactive |  |  |  | 
CN1C[C@H]2CNC(=O)c3cc(CCc4ccccc4)ccc3[C@@H]2C1 (relative stereo) [Example 87, Trans-2-methyl-8-phenethyl-1,2,3,3a,4,5-hexahydrobenzo[e]pyrrolo[3,4-c]azepin-6(10bH)-one] | 0.038 µM | 90% | > 10 µM | inactive |  |  |  | 
